Results as given in publication PMC7762994 (Viruses, 2020).

Experiments:
HSPA12A = target: T1, HSPA12A (Homo sapiens, UniProt O43301); assay: 2D-TPP in U87 cells; format: binding; conditions: 1.5 h, destabilized, read-out: pEC50 of protein destabilization, HSPA12A (converted)
T1 construct: endogenous in cells; host or cells: U87 cells

HSP90B1 = target: T2, HSP90B1 (Homo sapiens, UniProt P14625); assay: 2D-TPP in U87 cells; format: binding; conditions: 1.5 h, stabilized, read-out: pEC50 of protein stabilization, HSP90B1 (converted)
T2 construct: endogenous in cells; host or cells: U87 cells

DNAJC3 [1] = target: T3, DNAJC3 (Homo sapiens, UniProt Q13217); assay: 2D-TPP in U87 cells
T3 sequence (Q13217 32-504): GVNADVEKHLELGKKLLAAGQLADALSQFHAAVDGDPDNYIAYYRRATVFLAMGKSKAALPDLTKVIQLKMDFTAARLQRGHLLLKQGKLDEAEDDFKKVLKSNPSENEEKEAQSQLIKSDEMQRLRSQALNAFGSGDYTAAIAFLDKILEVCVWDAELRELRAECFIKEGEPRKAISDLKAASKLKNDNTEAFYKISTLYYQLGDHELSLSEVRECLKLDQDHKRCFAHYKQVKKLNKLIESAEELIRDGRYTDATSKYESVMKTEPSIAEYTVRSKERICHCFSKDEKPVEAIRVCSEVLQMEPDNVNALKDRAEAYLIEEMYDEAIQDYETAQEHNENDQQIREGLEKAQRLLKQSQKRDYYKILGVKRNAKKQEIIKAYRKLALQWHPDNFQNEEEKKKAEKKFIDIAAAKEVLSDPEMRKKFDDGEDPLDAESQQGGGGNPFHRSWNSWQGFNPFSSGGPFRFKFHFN

HSPA1A [2] = target: T4, HSPA1A (Homo sapiens, UniProt P0DMV8); assay: 2D-TPP in U87 cells
T4 sequence (P0DMV8 whole entry): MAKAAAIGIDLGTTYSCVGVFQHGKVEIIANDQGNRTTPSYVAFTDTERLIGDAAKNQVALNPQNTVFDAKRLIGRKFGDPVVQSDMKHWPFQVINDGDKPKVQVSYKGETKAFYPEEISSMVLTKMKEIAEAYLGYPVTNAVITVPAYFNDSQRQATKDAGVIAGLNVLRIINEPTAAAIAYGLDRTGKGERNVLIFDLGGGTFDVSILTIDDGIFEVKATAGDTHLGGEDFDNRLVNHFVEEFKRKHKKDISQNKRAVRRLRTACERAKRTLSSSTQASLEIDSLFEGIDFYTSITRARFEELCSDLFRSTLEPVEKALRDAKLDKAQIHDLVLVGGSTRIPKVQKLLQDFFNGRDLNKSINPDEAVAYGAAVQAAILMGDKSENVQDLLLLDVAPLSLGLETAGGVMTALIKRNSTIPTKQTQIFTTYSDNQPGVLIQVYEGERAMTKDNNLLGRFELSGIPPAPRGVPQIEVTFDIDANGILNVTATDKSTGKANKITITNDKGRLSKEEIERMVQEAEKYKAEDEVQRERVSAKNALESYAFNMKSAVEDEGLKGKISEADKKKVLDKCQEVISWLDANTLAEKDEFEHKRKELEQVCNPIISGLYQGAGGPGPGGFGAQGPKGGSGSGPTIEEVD

CALR = target: T5, CALR (Homo sapiens, UniProt P27797); assay: 2D-TPP in U87 cells; format: binding; conditions: 1.5 h, stabilized, read-out: pEC50 of protein stabilization, CALR (converted)
T5 construct: endogenous in cells; host or cells: U87 cells
T5 sequence (P27797 18-417): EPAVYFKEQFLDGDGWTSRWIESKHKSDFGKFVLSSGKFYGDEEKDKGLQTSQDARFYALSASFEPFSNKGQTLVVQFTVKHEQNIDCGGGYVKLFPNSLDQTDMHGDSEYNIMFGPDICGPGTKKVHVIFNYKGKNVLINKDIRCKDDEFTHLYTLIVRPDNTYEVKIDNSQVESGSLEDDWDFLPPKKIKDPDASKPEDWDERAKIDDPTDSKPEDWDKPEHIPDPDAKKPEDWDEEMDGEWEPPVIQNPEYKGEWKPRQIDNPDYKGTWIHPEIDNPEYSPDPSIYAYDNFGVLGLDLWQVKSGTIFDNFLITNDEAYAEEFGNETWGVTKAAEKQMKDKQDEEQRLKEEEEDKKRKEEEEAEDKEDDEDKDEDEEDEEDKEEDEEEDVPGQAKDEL

HSPA9 = target: T6, HSPA9 (Homo sapiens, UniProt P38646); assay: 2D-TPP in U87 cells; format: binding
T6 construct: endogenous in cells; host or cells: U87 cells

DNAJC3 [3] = target: T3, DNAJC3; assay: TPP-TR in HAZV-infected SW13 cells; conditions: 20 μM, 4 h
EDEM3 = EDEM3 (Homo sapiens, UniProt Q9BZQ6); assay: 2D-TPP in U87 cells; format: binding; design: endogenous in cells; host or cells: U87 cells; conditions: 1.5 h, stabilized, read-out: pEC50 of protein stabilization, EDEM3 (converted)
Chain of EDEM3 (Q9BZQ6 42-932): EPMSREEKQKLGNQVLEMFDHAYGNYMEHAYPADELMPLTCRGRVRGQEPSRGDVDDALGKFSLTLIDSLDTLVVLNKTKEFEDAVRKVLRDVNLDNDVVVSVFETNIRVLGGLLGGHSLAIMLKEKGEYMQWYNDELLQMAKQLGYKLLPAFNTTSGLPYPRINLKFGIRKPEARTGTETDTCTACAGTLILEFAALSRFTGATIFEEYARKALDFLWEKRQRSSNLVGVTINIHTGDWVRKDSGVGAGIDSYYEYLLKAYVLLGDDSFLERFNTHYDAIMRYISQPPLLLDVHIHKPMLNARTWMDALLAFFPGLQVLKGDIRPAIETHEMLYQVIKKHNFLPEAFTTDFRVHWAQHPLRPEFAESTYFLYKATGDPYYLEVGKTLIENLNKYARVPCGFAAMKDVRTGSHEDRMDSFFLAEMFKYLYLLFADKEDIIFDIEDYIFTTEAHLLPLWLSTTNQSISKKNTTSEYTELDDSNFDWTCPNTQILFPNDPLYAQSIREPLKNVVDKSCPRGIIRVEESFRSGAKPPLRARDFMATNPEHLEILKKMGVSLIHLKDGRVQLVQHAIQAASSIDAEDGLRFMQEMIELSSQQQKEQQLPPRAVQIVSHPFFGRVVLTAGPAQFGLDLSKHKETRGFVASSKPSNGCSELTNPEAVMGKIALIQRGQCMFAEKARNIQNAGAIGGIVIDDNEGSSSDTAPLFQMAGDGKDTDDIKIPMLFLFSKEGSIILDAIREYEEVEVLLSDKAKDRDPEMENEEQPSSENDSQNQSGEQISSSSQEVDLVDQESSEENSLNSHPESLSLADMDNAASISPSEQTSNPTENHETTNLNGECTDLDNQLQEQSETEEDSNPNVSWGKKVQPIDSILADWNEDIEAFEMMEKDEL

DNAJB11 [4] = target: T7, DNAJB11 (Homo sapiens, UniProt Q9UBS4); assay: TPP-TR in HAZV-infected SW13 cells
T7 sequence (Q9UBS4 23-358): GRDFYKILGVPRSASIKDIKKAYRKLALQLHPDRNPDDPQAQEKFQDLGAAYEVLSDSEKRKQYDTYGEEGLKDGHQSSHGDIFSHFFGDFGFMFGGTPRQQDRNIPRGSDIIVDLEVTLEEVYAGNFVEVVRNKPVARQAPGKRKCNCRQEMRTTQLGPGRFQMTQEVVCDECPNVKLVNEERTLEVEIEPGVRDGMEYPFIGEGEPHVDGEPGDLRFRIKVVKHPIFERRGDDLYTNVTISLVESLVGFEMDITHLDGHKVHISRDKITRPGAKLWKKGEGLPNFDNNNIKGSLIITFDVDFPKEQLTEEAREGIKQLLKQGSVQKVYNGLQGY

HYOU1 = target: T8, HYOU1 (Homo sapiens, UniProt Q9Y4L1); assay: 2D-TPP in U87 cells; format: binding; conditions: 1.5 h, stabilized, read-out: pEC50 of protein stabilization, HYOU1 (converted)
T8 construct: endogenous in cells; host or cells: U87 cells

OGG1 [5] = target: T9, OGG1 (Homo sapiens, UniProt O15527); assay: Cellular thermal shift assay (CETSA), Western blot; format: binding; design: endogenous in cells; host or cells: SW13 or U87 cells
T9 sequence (O15527 whole entry): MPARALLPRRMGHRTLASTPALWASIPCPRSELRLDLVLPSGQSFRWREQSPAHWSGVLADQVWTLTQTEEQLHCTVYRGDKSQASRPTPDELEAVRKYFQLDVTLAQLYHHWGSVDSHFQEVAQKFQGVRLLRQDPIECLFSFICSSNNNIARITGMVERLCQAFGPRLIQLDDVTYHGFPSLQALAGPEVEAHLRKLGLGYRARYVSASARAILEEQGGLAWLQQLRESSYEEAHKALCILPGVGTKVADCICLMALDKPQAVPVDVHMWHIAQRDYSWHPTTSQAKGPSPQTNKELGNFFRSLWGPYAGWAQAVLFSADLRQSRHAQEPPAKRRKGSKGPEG

DNAJB11 [6] = target: T7, DNAJB11; assay: 2D-TPP in U87 cells
SW13 cells = assay: Viability of SW13 cells by nuclei count in the HAZV antiviral assay; format: cell-based; conditions: Homo sapiens; HAZV, SW13, MOI 1, 24 h; read-out: Viability (nuclei count) EC50
Hsp70 = target: T10, Hsp70 (Homo sapiens, UniProt P0DMV8); assay: Cellular thermal shift assay; format: binding; conditions: U87 and SW13 cells, 56 and 59 °C, CETSA-TR at 20 μM and dose dependently
T10 construct: endogenous in cells; host or cells: U87 or SW13 cells
T10 sequence (P0DMV8 whole entry): as the sequence (P0DMV8 whole entry) above

HSPA2 = target: T11, HSPA2 (Homo sapiens, UniProt P54652); assay: 2D-TPP in U87 cells; format: binding; conditions: 1.5 h, destabilized, read-out: pEC50 of protein destabilization, HSPA2 (converted)
T11 construct: endogenous in cells; host or cells: U87 cells

CoV 229E = CoV 229E titer in Huh7 cells, end-point dilution assay; format: cell-based, Coronavirus 229E; conditions: MOI 5, 10 µM, 24 h
[7] = target: T12, Hsp70 - HAZV NP interaction (Homo sapiens, UniProt P0DMV8); assay: Hsp70 immunoprecipitation in HAZV-infected Hek293T cells; format: cell-based; conditions: HAZV MOI 1, 20 μM, 1 h, statistically not significant
T12 construct: endogenous in cells; host or cells: HEK293T cells infected with HAZV (MOI 1)
T12 sequence (P0DMV8 2-641): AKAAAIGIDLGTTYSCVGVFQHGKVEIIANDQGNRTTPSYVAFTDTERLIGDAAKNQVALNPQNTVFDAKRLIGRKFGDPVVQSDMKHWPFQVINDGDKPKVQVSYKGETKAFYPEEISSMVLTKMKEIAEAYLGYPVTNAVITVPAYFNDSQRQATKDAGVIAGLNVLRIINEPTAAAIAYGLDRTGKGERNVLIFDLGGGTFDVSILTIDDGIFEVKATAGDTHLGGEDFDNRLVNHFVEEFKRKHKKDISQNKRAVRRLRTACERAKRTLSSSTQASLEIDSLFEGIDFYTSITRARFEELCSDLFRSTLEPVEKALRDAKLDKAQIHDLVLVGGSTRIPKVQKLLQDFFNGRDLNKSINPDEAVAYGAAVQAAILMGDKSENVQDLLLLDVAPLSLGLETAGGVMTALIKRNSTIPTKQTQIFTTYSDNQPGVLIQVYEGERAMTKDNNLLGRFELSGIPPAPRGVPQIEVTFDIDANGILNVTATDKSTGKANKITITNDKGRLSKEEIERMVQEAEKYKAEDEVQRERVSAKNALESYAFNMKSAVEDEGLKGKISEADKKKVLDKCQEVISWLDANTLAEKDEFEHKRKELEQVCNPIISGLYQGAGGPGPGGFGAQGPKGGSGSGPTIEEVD

HSPA8 = target: T13, HSPA8 (Homo sapiens, UniProt P11142); assay: 2D-TPP in U87 cells; format: binding; conditions: 1.5 h, destabilized, read-out: pEC50 of protein destabilization, HSPA8 (converted)
T13 construct: endogenous in cells; host or cells: U87 cells
T13 sequence (P11142 whole entry): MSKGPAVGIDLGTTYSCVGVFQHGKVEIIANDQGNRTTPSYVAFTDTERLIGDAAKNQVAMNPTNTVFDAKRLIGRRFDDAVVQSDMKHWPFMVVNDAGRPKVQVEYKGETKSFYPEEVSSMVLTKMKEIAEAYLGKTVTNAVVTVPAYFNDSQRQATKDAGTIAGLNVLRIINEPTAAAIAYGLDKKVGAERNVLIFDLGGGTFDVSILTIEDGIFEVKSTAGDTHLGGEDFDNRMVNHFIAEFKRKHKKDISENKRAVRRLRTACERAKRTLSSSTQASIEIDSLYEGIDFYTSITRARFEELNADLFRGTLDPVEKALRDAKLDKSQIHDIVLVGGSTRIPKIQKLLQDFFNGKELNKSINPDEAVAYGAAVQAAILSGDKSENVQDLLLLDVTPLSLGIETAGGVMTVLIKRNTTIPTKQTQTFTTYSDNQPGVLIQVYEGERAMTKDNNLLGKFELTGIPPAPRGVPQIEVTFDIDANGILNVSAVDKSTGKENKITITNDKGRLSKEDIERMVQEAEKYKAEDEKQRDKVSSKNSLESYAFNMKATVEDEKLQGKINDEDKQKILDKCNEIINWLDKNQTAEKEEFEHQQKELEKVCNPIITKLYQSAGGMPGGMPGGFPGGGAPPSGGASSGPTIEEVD

HSPA1A [8] = target: T4, HSPA1A; assay: TPP-TR in HAZV-infected SW13 cells; conditions: 20 μM, 4 h
OGG1 [9] = target: T9, OGG1; assay: In vitro OGG1 activity assay; format: biochemical

**Q.** Which results are given for `CCOC(=O)c1cnn(-c2cccc3c2[nH]c(=O)n3C2CCN(C(=O)Nc3ccc(I)cc3)CC2)c1` [TH6744, ethyl 1-(1-(1-((4-iodophenyl)carbamoyl)piperidin-4-yl)-2-oxo-2,3-dihydro-1H-benzo[d]imidazol-4-yl)-1H-pyrazole-4-carboxylate]?
**A.** EC50 (HSPA12A): 12.6 µM; EC50 (HSP90B1): 6.31 µM; EC50 (DNAJC3 [1]): 3.16 µM; EC50 (HSPA1A [2]): 3.16 µM; EC50 (CALR): 3.98 µM; thermal stability change of HSPA9 (HSPA9): destabilized; thermal stability change of DNAJC3 (DNAJC3 [3]): stabilized; EC50 (EDEM3): 1 µM; thermal stability change of DNAJB11 (DNAJB11 [4]; 20 μM, 4 h): stabilized; ΔTm at 20 µM (DNAJB11 [4]; read-out: ΔTm of DNAJB11): 13.6 °C; EC50 (HYOU1): 10 µM; binding to OGG1 (CETSA, Western blotting) (OGG1 [5]; SW13 cells, 20 μM): binding to its known target OGG1; binding to OGG1 (isothermal dose-response CETSA at 47 °C, Western blotting) (OGG1 [5]; U87 cells): binding to its known target OGG1 in U87 cells; EC50 (DNAJB11 [6]): 7.94 µM; EC50 (SW13 cells): 37.4 µM; Hsp70 thermal stability (CETSA) (Hsp70): Hsp70 destabilization; EC50 (HSPA2): 3.16 µM; reduction of CoV 229E titer (CoV 229E): 95%; increase of HAZV NP interaction with Hsp70 (signal intensity) [7]: 2 fold; EC50 (HSPA8): 5.01 µM; thermal stability change of HSPA1A (HSPA1A [8]): destabilized; IC50 (OGG1 [9]): 0.68 µM; OGG1 activity (in words) (OGG1 [9]; Figure 3A): Nanomolar OGG1activity
